Square brackets hold non-standard residues; d marks the D form. Peptide text beside a SMILES is read from it. * marks the point of attachment. code Z = Europium label (diethylenetriaminepentaacetatoeuropium); Cha = N[C@@H](CC1CCCCC1)C(=O)O; Isonicotinoyl = O=C(c1ccncc1)*; NHPhenethyl = c1ccc(CCN*)cc1; X19 = O=C(Cc1ccc(Br)cc1)*; Piperidide = C1CCN(*)CC1; PhAc = O=C(Cc1ccccc1)*; NHBn = c1ccc(CN*)cc1

VLA-4, sequence (P13612 34-1032): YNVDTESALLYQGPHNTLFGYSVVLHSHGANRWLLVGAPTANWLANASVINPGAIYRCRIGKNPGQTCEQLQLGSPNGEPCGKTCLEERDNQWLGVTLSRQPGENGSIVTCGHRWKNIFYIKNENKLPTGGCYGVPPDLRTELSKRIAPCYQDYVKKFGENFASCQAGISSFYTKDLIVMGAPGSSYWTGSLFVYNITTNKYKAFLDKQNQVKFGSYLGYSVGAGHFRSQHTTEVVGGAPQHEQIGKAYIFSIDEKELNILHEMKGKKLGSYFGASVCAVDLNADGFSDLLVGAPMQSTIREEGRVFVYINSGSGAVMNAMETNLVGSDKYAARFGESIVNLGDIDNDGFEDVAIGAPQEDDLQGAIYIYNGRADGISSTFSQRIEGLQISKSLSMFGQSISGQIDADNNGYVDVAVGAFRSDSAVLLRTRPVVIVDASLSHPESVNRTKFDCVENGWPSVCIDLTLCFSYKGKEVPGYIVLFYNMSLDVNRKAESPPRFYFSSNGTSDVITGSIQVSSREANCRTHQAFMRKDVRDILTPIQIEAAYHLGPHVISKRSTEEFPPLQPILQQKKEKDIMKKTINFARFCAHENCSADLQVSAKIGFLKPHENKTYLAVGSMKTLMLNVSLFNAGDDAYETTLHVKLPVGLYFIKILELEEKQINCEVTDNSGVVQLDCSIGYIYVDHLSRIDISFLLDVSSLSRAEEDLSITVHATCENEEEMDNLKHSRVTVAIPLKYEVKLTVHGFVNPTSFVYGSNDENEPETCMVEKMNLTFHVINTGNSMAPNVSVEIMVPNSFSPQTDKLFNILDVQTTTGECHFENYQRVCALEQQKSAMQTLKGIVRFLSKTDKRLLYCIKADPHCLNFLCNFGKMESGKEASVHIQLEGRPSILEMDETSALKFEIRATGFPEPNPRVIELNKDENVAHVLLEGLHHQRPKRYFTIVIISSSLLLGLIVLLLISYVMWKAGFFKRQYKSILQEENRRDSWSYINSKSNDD
VLA-4, sequence (P05556 21-798): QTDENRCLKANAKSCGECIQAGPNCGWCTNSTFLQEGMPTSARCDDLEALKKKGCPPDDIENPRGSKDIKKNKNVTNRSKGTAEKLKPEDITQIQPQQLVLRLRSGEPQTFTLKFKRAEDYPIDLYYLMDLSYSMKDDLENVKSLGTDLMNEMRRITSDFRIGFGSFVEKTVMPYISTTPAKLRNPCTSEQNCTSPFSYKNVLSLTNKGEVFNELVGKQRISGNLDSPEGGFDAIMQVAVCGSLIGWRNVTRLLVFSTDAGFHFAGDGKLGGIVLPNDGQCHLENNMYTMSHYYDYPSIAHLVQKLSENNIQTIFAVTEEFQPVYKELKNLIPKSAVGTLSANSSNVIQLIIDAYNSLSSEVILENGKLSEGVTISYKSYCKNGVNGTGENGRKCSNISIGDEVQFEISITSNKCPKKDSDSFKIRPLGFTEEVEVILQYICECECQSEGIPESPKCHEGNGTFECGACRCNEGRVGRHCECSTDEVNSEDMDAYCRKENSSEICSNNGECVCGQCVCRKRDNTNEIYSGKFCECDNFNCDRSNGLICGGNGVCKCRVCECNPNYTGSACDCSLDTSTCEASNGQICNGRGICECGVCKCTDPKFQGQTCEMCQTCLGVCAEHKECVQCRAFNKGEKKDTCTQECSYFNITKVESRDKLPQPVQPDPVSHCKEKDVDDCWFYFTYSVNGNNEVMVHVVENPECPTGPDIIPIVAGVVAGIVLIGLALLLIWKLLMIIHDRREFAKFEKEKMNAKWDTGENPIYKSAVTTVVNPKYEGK

The first experiment concerns the target VLA-4 (Homo sapiens, UniProt P05556+P13612). The experiment can be described thus: cell-based. The format is cell-based. Set-up: host or cells: Jurkat (human T lymphoblastic line).
Details: not given
The procedure:
Binding inhibition is measured here as a concentration of peptide that inhibits one-half the binding between a standard number of Jurkat cells and a standard amount of CS-1 peptide bound to the surface of a microtiter plate well. Those concentrations are conveniently expressed as IC50 values, smaller numbers indicating a lower concentration required to inhibit 50 percent binding and therefore greater potency. Further specifics of this assay are provided hereinafter.
Jurkat cells (ATCC TIB 152), a human T lymphoblastic line, labeled with ^51 chromium were used to assay in vitro binding inhibition provided by various peptides discussed herein.
The plates were prepared as follows: The 25-mer CS-1 peptide (SEQ ID NO:1) dissolved at 0.5-1 μg/ml in a buffer of 0.1M NaHCO3 at pH 9.5 that also contained 10 μg/ml of bovine serum albumin (BSA) or a conjugate of the CS-1 peptide linked to ovalbumin (CS-1-OVA) dissolved at 1-2.5 μg/ml in the same buffer was used as the substrate. Each well of the microtiter plates was coated with 50 μl of substrate or buffer alone for controls. The wells were permitted to dry out completely and were then rinsed twice with PBS at pH 7.4. Non-specific binding sites of each well were then blocked using 200 μl per well of RPMI/1 percent BSA for two hours at room temperature. Both solid phase-affixed substrates provided similar results.
Jurkat cells (3-5×10^6 cells) were placed into a 15 ml Falcon™ round-bottom tube with a cap. The tube was centrifuged, and the extra medium was then removed.
Two hundred microliters of a ^51 Cr labeling solution were added to the centrifuged cells and maintained in contact with the cells for 90-120 minutes in a warm room. This procedure typically provides about 50,000-100,000 cpm/well with about 80-100 percent cell viability. Longer contact times provide a greater amount of labeling but lower cell viability.
The labeled cells are washed with (i) complete medium, (ii) 1 mM EDTA/PBS and then (iii) RPM1/1 percent BSA free of serum components. The cells are centrifuged after each washing. The cells are finally resuspended in serum-free RPMI/1 percent BSA at a concentration of 1×10^6 viable cells/ml, which provides a concentration that is diluted by one-half in the assay.
Inhibitor peptides are prepared as stock solutions at 20 mg/ml in DMSO in 1.5 ml cryogenic screwcap vials, and were stored at -70° C. Using Flow™ round-bottom or V-bottom microtiter plates, the inhibitor peptides were prepared at twice the assay concentration in RPMI/1 percent BSA at 60 μl well.
Four initial dilutions were typically used.
The ^51 Cr-labeled cells (1×10^6 cells at 60 μl/well) were then admixed with the diluted peptide solutions. The admixtures were maintained at room temperature (about 22° C.) for 30 minutes.
One hundred microliters of each inhibitor peptide/cell admixture were transferred to the substrate-coated wells. This was done in triplicate for each dilution. The resulting plates were incubated for 30 minutes at 37° C. and then washed gently three times with RPMI/1 percent BSA at 200 μl/well. Binding was observed microscopically, particularly after the second wash.
The bound cells were then lysed by the addition of a 0.5 percent solution of sodium dodecylsulfate in water at 100 μ/l well. The resulting solutions were then processed for counting and calculation of IC50 values following usual procedures. Appropriate positive and negative controls were used with each plate so that the results of separate assays could be normalized and compared.
The data of Table 1 are so normalized.
As to “Z X F L D F p: X = ε-amidocaproyl, Z = Europium label (diethylenetriaminepentaacetatoeuropium), C-terminal amide ({code Z-ε‑amidocaproyl}-FLDF[dP]-NH2; also: europium chelate)”, the “binding inhibition better than the standard 10-mer peptide of SEQ ID NO:3” value is recorded as “about 120 times”. Regarding `CC(=O)N[C@@H](CC(C)C)C(=O)N[C@@H](CC(=O)O)C(=O)N[C@@H](Cc1ccccc1)C(N)=O` [L D F acetyl amide] (Ac-Leu-Asp-Phe-NH2), the “RELATIVE POTENCY (relative peptide inhibition of VLA-4 binding CS-1)” value is on record as under 1.

With `NC(=O)[C@H]1CCCN1C(=O)[C@H](Cc1ccccc1)NC(=O)[C@H](CC(=O)O)NC(=O)[C@H](CC1CCCCC1)NC(=O)[C@@H](N)Cc1ccccc1` (H-F[Cha]DF[dP]-NH2), the “RELATIVE POTENCY (relative peptide inhibition of VLA-4 binding CS-1)” value was found to be 1.

As to `CC(C)C[C@H](NC(=O)Cc1ccc(Br)cc1)C(=O)N[C@@H](CC(=O)O)C(=O)N[C@@H](Cc1ccccc1)C(=O)N1CCC[C@@H]1C(N)=O` [X L D F p p-bromophenylacetyl amide] (X19-LDF[dP]-NH2), the “RELATIVE POTENCY (relative peptide inhibition of VLA-4 binding CS-1)” value stood at 3. The same measure, in the same setting: the value for `CC(C)C[C@H](NC(=O)c1ccccn1)C(=O)N[C@@H](CC(=O)O)C(=O)N[C@H](C(=O)N1CCC[C@@H]1C(N)=O)C(C)C` [X L D V p pyridine-2-carbonyl amide] was 8; that for `CC(C)C[C@H](NC(=O)c1ccncc1)C(=O)N[C@@H](CC(=O)O)C(=O)N[C@@H](Cc1ccccc1)C(=O)N1CCC[C@@H]1C(N)=O` [X L D F p pyridine-4-carbonyl amide] (Isonicotinoyl-LDF[dP]-NH2) was 656; that for `CC(C)C[C@H](N)C(=O)N[C@@H](CC(=O)O)C(=O)N[C@@H](Cc1ccccc1)C(=O)N1CCCCC1` [L D F Z free amine piperidinamide] (H-Leu-Asp-Phe-Piperidide) was 0.

The experiment is the same for the next values; noted with them: normalized IC50 relative to standard peptide of SEQ ID NO:3 (=1); about one-tenth or less of the standard is assigned zero.
On to `CC(C)C[C@H](NC(=O)Cc1ccccc1)C(=O)N[C@@H](CC(=O)O)C(=O)N[C@@H](Cc1c[nH]c2ccccc12)C(=O)N1CCC[C@@H]1C(N)=O` [X L D W p phenylacetyl amide] (PhAc-LDW[dP]-NH2), for which the “RELATIVE POTENCY (relative peptide inhibition of VLA-4 binding CS-1)” value was determined as 184. Same read-out and setting: with “Z X F L D F p: X = ε-amidocaproyl, Z = Europium label (diethylenetriaminepentaacetatoeuropium), C-terminal amide ({code Z-ε‑amidocaproyl}-FLDF[dP]-NH2; also: europium chelate)” the figure was 118; with `CC(C)C[C@H](NC(=O)Cc1ccccc1)C(=O)N[C@@H](CC(=O)O)C(=O)N[C@@H](Cc1ccccc1)C(=O)N1CCC(O)CC1`, 603. Still for that read-out and setting: the value for `CC(C)C[C@H](NC(=O)Cc1ccccc1)C(=O)N[C@@H](CC(=O)O)C(=O)NCCc1ccccc1` [X L D Z phenylacetyl phenethylamide] (PhAc-Leu-Asp-NHPhenethyl) was 19; that for `CC(C)C[C@H](NC(=O)Cc1ccccc1)C(=O)N[C@@H](CC(=O)O)C(=O)NC(Cc1ccccc1)Cc1ccccc1` was 0; that for `CC(C)C[C@H](NC(=O)Cc1ccccc1)C(=O)N[C@@H](CC(=O)O)C(=O)N(Cc1ccccc1)Cc1ccccc1` [X L D Z phenylacetyl dibenzylamide] was 0. Still for that read-out and setting: the value for `CCCCCCCCCC(=O)OC1CCN(C(=O)[C@H](Cc2ccccc2)NC(=O)[C@H](CC(=O)O)NC(=O)[C@H](CC(C)C)NC(=O)Cc2ccccc2)CC1` was 1; that for `CC(C)C[C@H](NC(=O)Cc1ccccc1)C(=O)N[C@@H](CC(=O)O)C(=O)N[C@@H]1CCCCNC1=O` was 17.

Turning to `CC(C)C[C@H](NC(=O)Cc1ccccc1)C(=O)N[C@@H](CC(=O)O)C(=O)NC1Cc2ccccc2N(CC(N)=O)C1=O` (some centres unmarked), the “RELATIVE POTENCY (relative peptide inhibition of VLA-4 binding CS-1)” value stood at 45.

Turning to `CC(C)C[C@H](NC(=O)Cc1ccccc1)C(=O)N[C@@H](CC(=O)O)C(=O)NCc1ccccc1` [X L D Z phenylacetyl benzylamide] (PhAc-Leu-Asp-NHBn), the “RELATIVE POTENCY (relative peptide inhibition of VLA-4 binding CS-1)” value came to 19.

(Values after patent US5688913A, “CS-1 peptidomimetics, compositions and methods of using the same” (Cytel Corporation, priority 1995, dated 1997).)
